As usually defined, the Ki is a dissociation constant, usually derived from enzyme kinetics or from competition with a known ligand. As a reminder, the AC50 is the concentration at which the activity in the assay is half-maximal. Lower therefore signals greater potency.

Data on six molecules can be found in patent US20230265105A1, “MACROCYCLIC 7-PYRAZOL-5-YL-INDOLE DERIVATIVES AS INHIBITORS OF MCL-1” (Janssen Pharmaceutica NV, priority 2020, published 2023).

Assay [1] has as its target Myeloid Cell Leukemia 1 (Mcl-1) (Homo sapiens, UniProt Q07820). Kind of assay: Terbium labeled Mcl-1 HTRF binding assay with Cy5-labeled BIM BH3 peptide. The note with it: Ki=IC50/(1+[L]/Kd), [L]=8 nM, Kd=10 nM, 60 min incubation at room temperature, read-out: Tb-MCL1 Ki. How it is done:
Terbium labeled Myeloid Cell Leukemia 1 (Mcl-1) homogeneous time-resolved fluorescence (HTRF) binding assay utilizing the BIM BH3 peptide (H2N-(C/Cy5Mal) WIAQELRRIGDEFN-OH) as the binding partner for Mcl-1.
This assay evaluated inhibition of the BH3 domain: Mcl-1 interaction by measuring the displacement of Cy5-labeled BIM BH3 peptide (H2N—(C/Cy5Mal) WIAQELRRIGDEFN-OH) in the HTRF assay format.
The following assay and stock buffers were prepared for use in the assay: (a) Stock buffer: 10 mM Tris-HCl, pH=7.5+150 mM NaCl, filtered, sterilized, and stored at 4° C.; and (b) 1×assay buffer, where the following ingredients were added fresh to stock buffer: 2 mM dithiothreitol (DTT), 0.0025% Tween-20, 0.1 mg/mL bovine serum albumin (BSA). The 1×Tb-Mcl-1+Cy5 Bim peptide solution was prepared by diluting the protein stock solution using the 1×assay buffer (b) to 25 pM Tb-Mcl-1 and 8 nM Cy5 Bim peptide.
Using the Acoustic ECHO, 100 nL of 100×test compound(s) were dispensed into individual wells of a white 384-well Perkin Elmer Proxiplate, for a final compound concentration of 1× and final DMSO concentration of 1%. Inhibitor control and neutral control (NC, 100 nL of 100% DMSO) were stamped into columns 23 and 24 of assay plate, respectively. Into each well of the plate was then dispensed 10 μL of the 1×Tb-Mcl-1+Cy5 Bim peptide solution. The plate was centrifuged with a cover plate at 1000 rpm for 1 minute, then incubated for 60 minutes at room temperature with plates covered.
The TR-FRET signal was read on an BMG PHERAStar FSX MicroPlate Reader at room temperature using the HTRF optic module (HTRF: excitation: 337 nm, light source: laser, emission A: 665 nm, emission B: 620 nm, integration start: 60 μs, integration time: 400 μs).
The BMG PHERAStar FSX MicroPlate Reader was used to measure fluorescence intensity at two emission wavelengths—665 nm and 620 nm—and report relative fluorescence units (RFU) for both emissions, as well as a ratio of the emissions (665 nm/620 nm)*10,000. The RFU values were normalized to percent inhibition as follows:
% inhibition=(((NC−IC)−(compound−IC))/(NC−IC))*100
where IC (inhibitor control, low signal)=mean signal of 1×Tb-MCl-1+Cy5 Bim peptide+inhibitor control or 100% inhibition of Mcl-1; NC (neutral control, high signal)=mean signal 1×Tb-MCl-1+Cy5 Bim peptide with DMSO only or 0% inhibition
An 11-point dose response curve was generated to determine IC50 values (using GenData) based on the following equation:
Y=Bottom+(Top−Bottom)/(1+10^((log IC50−X)*HillSlope))
where Y=% inhibition in the presence of X inhibitor concentration; Top=100% inhibition derived from the IC (mean signal of Mcl-1+inhibitor control); Bottom=0% inhibition derived from the NC (mean signal of Mcl-1+DMSO); Hillslope=Hill coefficient; and IC50=concentration of compound with 50% inhibition in relation to top/neutral control (NC).
In this assay [L]=8 nM and Kd=10 nM
Representative compounds of the present invention were tested according to the procedure as described above, with results as listed in the Table below (n.d. means not determined).
For orientation: TR-FRET usually uses a lanthanide donor and a delayed reading to cut background.

The test system of assay [2] is MOLP-8 human multiple myeloma cell line. In words: MOLP8 Caspase-Glo 3/7 apoptosis induction assay. It counts as cell-based. As to conditions: MOLP-8 cells, 2 hours at 37° C., 30 μM highest conc., averaged over all runs on all batches. The source says:
MCL-1 is a regulator of apoptosis and is highly over-expressed in tumor cells that escape cell death. The assay evaluates the cellular potency of small-molecule compounds targeting regulators of the apoptosis pathway, primarily MCL-1, Bfl-1, Bcl-2, and other proteins of the Bcl-2 family. Protein-protein inhibitors disrupting the interaction of anti-apoptotic regulators with BH3-domain proteins initiate apoptosis.
The Caspase-Glo® 3/7 Assay is a luminescent assay that measures caspase-3 and -7 activities in purified enzyme preparations or cultures of adherent or suspension cells. The assay provides a proluminescent caspase-3/7 substrate, which contains the tetrapeptide sequence DEVD. This substrate is cleaved to release aminoluciferin, a substrate of luciferase used in the production of light. Addition of the single Caspase-Glo® 3/7 Reagent in an “add-mix-measure” format results in cell lysis, followed by caspase cleavage of the substrate and generation of a “glow-type” luminescent signal.
This assay uses the MOLP-8 human multiple myeloma cell line, which is sensitive to MCL-1 inhibition.
Cell cultures were maintained between 0.2 and 2.0×10^6 cells/mL. The cells were harvested by collection in 50 mL conical tubes. The cells were then pelleted at 500 g for 5 mins before removing supernatant and resuspension in fresh pre-warmed culture medium. The cells were counted and diluted as needed.
The assay reagent was prepared by transferring the buffer solution to the substrate vial and mixing. The solution may be stored for up to 1 week at 4° C. with negligible loss of signal.
Compounds were delivered in assay-ready plates (Proxiplate) and stored at −20° C.
Assays always include 1 reference compound plate containing reference compounds. The plates were spotted with 40 nL of compounds (0.5% DMSO final in cells; serial dilution; 30 μM highest conc. 1/3 dilution, 10 doses, duplicates). The compounds were used at room temperature and 4 μL of pre-warmed media was added to all wells except column 2 and 23. The negative control was prepared by adding 1% DMSO in media. The positive control was prepared by adding the appropriate positive control compound in final concentration of 60 μM in media. The plate was prepared by adding 4 μL negative control to column 23, 4 μL positive control to column 2 and 4 μL cell suspension to all wells in the plate. The plate with cells was then incubated at 37° C. for 2 hours. The assay signal reagent is the Caspase-Glo solution described above, and 8 μL was added to all wells. The plates were then sealed and measured after 30 minutes.
The activity of a test compound was calculated as percent change in apoptosis induction as follows:
[formula] [formula] % Effect (AC50)=100−((sample−LC)/(HC−LC))*100
% Control=(sample/HC)*100
% Control min=(sample−LC)/(HC−LC)*100

Myeloid Cell Leukemia 1 (Mcl-1), sequence (Q07820 whole entry): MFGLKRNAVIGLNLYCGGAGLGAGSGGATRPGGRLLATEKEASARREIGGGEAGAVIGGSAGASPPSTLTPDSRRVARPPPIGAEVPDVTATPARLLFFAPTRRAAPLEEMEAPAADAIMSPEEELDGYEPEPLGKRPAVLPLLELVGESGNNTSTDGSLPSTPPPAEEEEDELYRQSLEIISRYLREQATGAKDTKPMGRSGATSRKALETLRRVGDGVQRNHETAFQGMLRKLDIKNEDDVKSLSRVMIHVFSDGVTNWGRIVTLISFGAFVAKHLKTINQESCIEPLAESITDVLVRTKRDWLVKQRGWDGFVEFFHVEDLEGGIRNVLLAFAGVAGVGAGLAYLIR

In the case of `Cc1nn(C)c2c1CSCc1cc(n(C)n1)CCc1cc(c3ccccc3c1)OCCCc1c(C(=O)O)n(C)c3c-2c(Cl)ccc13` (single isomer, unassigned) [Compound 12a], the Ki in assay [1] turned out to be 0.031 nM. In assay [2], this molecule came in with a half-maximal activity concentration (AC50) of 29 nM.
In the case of `CN(C)CCn1c(C(=O)O)c2c3ccc(Cl)c(c31)-c1c(cnn1C)CSCc1cc(n(C)n1)CCc1cc(c3ccc(F)cc3c1)OCCC2` (single isomer, unassigned) [Compound 27], in assay [1], the inhibitory constant (Ki) turned out to be 0.031 nM. In addition, the half-maximal activity concentration (AC50) in assay [2] (Homo sapiens, MOLP-8, 2 h) came to 117 nM.
In the case of `COCCOCCn1c(C(=O)O)c2c3ccc(Cl)c(c31)-c1c(cnn1C)CSCc1cc(n(C)n1)CCc1cc(c3ccc(F)cc3c1)OCCC2` (single isomer, unassigned) [Compound 22], the inhibitory constant (Ki) in assay [1] was found to be 0.029 nM. In assay [2], this molecule showed an AC50 of 22 nM.
As to `Cc1nn(C)c2c1CSCc1cc(n(C)n1)CCc1cc(c3ccc(F)cc3c1)OCCCc1c(C(=O)O)n(C)c3c-2c(Cl)ccc13` (single isomer, unassigned) [Compound 10], in assay [1], the Ki is 0.307 nM. Further, in assay [2], the AC50 was found to be 10 nM.
The matching figures for `CCn1c(C(=O)O)c2c3ccc(Cl)c(c31)-c1c(cnn1C)CCCc1cc(n(C)n1)CCc1cc(c3ccc(F)cc3c1)OCCC2` (single isomer, unassigned) [Compound 13]: 0.051 nM and 22 nM.
For the molecule `COCCOCCc1nn(C)c2c1CSCc1cc(n(C)n1)CCc1cc(c3ccc(F)cc3c1)OCCCc1c(C(=O)O)n(C)c3c-2c(Cl)ccc13` (single isomer, unassigned) [Compound 18], the Ki in assay [1] was determined as 2.1 nM. This molecule also yielded an AC50 in assay [2] of 2430 nM.
